In data set [1] the test system is bovine serum albumin and cytochrome b5. The note with it: mice; cited from earlier work.
The next data set has as its system cytochrome b5. The conditions noted are these: saponin doses of 20 μg; cited from earlier work.
The test system of data set [2] is ovalbumin. The note with it: doses below 2.5 μg, mice; cited from earlier work.
The next data set concerns mice. The conditions noted are these: mouse, in vivo; cited from earlier work.
The test system of a further data set is E.G7-OVA target cells. Description: Cytotoxic T-lymphocyte (CTL) assay, 51Cr release, splenic effector cells from immunized mice. The format is in vivo, C57BL/6 mice. The conditions noted are these: s.c. with ovalbumin, weeks 1, 3, 5. The method, then:
(§1) All experiments were carried out in C57BL/6 mice (female, 8-12 weeks of age). The synergistic adjuvant-effect of the QS-21/QS-7 mixtures was assessed by two parameters: (1) the ability of these mixtures to improve antibody titers to a subunit antigen, ovalbumin, in mice; and (2) the ability of these mixtures to improve an ovalbumin-specific cytotoxic T lymphocyte (killer cell) response in mice.
The experimental techniques were the following. The mice were immunized subcutaneously at week 1, 3, and 5 with 0.2 ml of the indicated formulations in phosphate-buffered saline. Mice were immunized in groups of five. Sera and spleens were harvested at weeks 7 to 9. Sera was assayed for anti-ovalbumin antibody response by enzyme immunoassay. Briefly, a 96 well Immulon plate was coated with 10 μg/ml ovalbumin in phosphate-buffered saline (PBS) overnight at 4° C. These plates were blocked with 10% normal goat serum in PBS (diluent) for one hour at room temperature. Serial 1:10 dilutions of serum were made in diluent and were incubated on the plates for one hour at room temperature or overnight at 4° C. An enzyme conjugate of anti-mouse IgG (or anti-mouse IgG subclass) was diluted in diluent and incubated on the plate. A calorimetric enzyme substrate, tetramethylbenzidine, was used to assay for binding of anti-ovalbumin antibody. Spleens from immunized mice were used to assay for the cytotoxic T lymphocyte (CTL) response. The effector cells for the (CTL) assay were splenic mononuclear cells from the harvested spleens. The antigen-positive target cells for the assay were E.G7-OVA cells, which are an MHC class II antigen-negative EL4 mouse cell line, transfected with the ovalbumin gene. […] EL4 cells were used as an ovalbumin-negative target cell line. Prior to assay, splenic mononuclear cells were stimulated with antigen to induce maturation of precursor CTL in the effector cell population. The antigens used for stimulation were mitomycin C treated E.G7-OVA cells (incubated with spleen cells at a ratio of 20:1 spleen cells: E.G7-OVA cells) or denatured ovalbumin (25 μg/ml). […]

Data set [3] deals with ovalbumin. Description: Serum anti-ovalbumin antibody response by enzyme immunoassay after immunization. The class given is in vivo, C57BL/6 mice. The note with it: saponin dose 0.625 μg, alone. The procedure: as §1
The experimental techniques were the following. The mice were immunized subcutaneously at week 1, 3, and 5 with 0.2 ml of the indicated formulations in phosphate-buffered saline. Mice were immunized in groups of five. Sera and spleens were harvested at weeks 7 to 9. Sera was assayed for anti-ovalbumin antibody response by enzyme immunoassay. Briefly, a 96 well Immulon plate was coated with 10 μg/ml ovalbumin in phosphate-buffered saline (PBS) overnight at 4° C. These plates were blocked with 10% normal goat serum in PBS (diluent) for one hour at room temperature. Serial 1:10 dilutions of serum were made in diluent and were incubated on the plates for one hour at room temperature or overnight at 4° C. An enzyme conjugate of anti-mouse IgG (or anti-mouse IgG subclass) was diluted in diluent and incubated on the plate. A calorimetric enzyme substrate, tetramethylbenzidine, was used to assay for binding of anti-ovalbumin antibody. […]

Data set [4] concerns ovalbumin. The conditions noted are these: at 2.5 μg or lower, mice; cited from earlier work.

As for QS-18, in data set [1], the “antibody responses to bovine serum albumin and cytochrome b5” value (“antibody responses” below) is given as “stimulate potent antibody responses”. For the same substance, the “IgG2a response to cytochrome b5” value in the data set with cytochrome b5 is “stimulate IgG2a response”.
As for QS-17, the “antibody responses” value in data set [1] is “stimulate potent antibody responses”. For the same substance, in the data set with cytochrome b5, the “IgG2a response to cytochrome b5” value is reported as “stimulate IgG2a response”.
As for QS-21, the “adjuvant for raising an antibody response to ovalbumin” value with ovalbumin [2] was “ineffective”. Also, the “antibody responses” value in data set [1] is on record as “stimulate potent antibody responses”. Besides, the toxicity in mice result in the data set on mice is “least toxic”. Further, the “stimulating a CTL response” value in the data set with E.G7-OVA target cells (saponin dose 0.625 μg) is “ineffective”; in the data set on E.G7-OVA target cells (saponin dose 1.25 μg), “ineffective”; in the data set on E.G7-OVA target cells (saponin dose 20 μg) it was “highly effective”. Besides, the “antibody titer compared with no adjuvant” value in the data set on ovalbumin [3] is reported as “neither 10 μg QS-7 or 0.625 μg QS-21, individually, yields a titer that is higher than no adjuvant”. In addition, the “IgG2a response to cytochrome b5” value with cytochrome b5 was “stimulate IgG2a response”. Also, the “CTL response to ovalbumin” value in the data set with ovalbumin [4] is “minimal”.

The values above are taken from patent US6524584B2, “Saponin compositions and uses thereof” (priority 1996, dated 2003).
